Assay: Solubility of naphthoquinone diazides in ethylene glycol monomethyl ether
Type: physicochemical
Details: for Solubility (%): 26° C., stirred for 2 hours, 2 g in 50 g, crystalline samples, substantially free from amorphous fractions; for solubility (in words): Table 2
Procedure: The solubility of the new naphthoquinone diazides, as compared with the known bis-1,2-naphthoquinone-2-diazide-5-sulfonic acid ester of 2,2-bis-(4-hydroxyphenyl)-propane (comparison compound V), was determined as follows: 2 g of the naphthoquinone diazide were suspended in each case in 50 g of ethylene glycol monomethyl ether and stirred for 2 hours at 26° C. Then, the mixture was filtered by suction, the filter residue was washed successively with 10 cm^3 of methanol and 10 cm^3 of ether and dried in vacuo and its weight was determined. The solubilities in ethylene glycol monomethyl ether, listed in Table 2, were calculated from the difference to the quantity employed: […]
In all cases, it was confirmed by diffraction diagrams taken with an X-ray diffractometer that the samples tested were substantially free from amorphous fractions. In every case, the solubility of a solid compound which is wholly or partially present in the amorphous state is markedly higher than that of the corresponding crystalline compound. A comparison with these values is, however, unreliable because the solubilities of amorphous compounds cannot be determined with exact reproducibility due to the differing tendency of supersaturated solutions to crystallize.

Row | Compound | Solubility (%) | solubility (in words)
1 | CC(C)(c1ccc(OS(=O)(=O)c2cccc3c2C=CC(=[N+]=[N-])C3=O)cc1)c1ccc(OS(=O)(=O)c2cccc3c2C=CC(=[N+]=[N-])C3=O)cc1 [V, bis-1,2-naphthoquinone-2-diazide-5-sulfonic acid ester of 2,2-bis-(4-hydroxyphenyl)-propane, reference compound] | 0.75% | –
2 | CCOCCOC(=O)CCC(C)(c1ccc(OS(=O)(=O)c2cccc3c2C=CC(=[N+]=[N-])C3=O)cc1)c1ccc(OS(=O)(=O)c2cccc3c2C=CC(=[N+]=[N-])C3=O)cc1 (centres unmarked) [Compound 8] | 3.80% | very good solubility
3 | COC(=O)CCC(C)(c1ccc(OS(=O)(=O)c2cccc3c2C=CC(=[N+]=[N-])C3=O)cc1)c1ccc(OS(=O)(=O)c2cccc3c2C=CC(=[N+]=[N-])C3=O)cc1 (centres unmarked) [Compound 2] | 1.85% | very good solubility
4 | CCCCOC(=O)C(c1ccc(OS(=O)(=O)c2cccc3c2C=CC(=[N+]=[N-])C3=O)cc1)c1ccc(OS(=O)(=O)c2cccc3c2C=CC(=[N+]=[N-])C3=O)cc1 (centres unmarked) [Compound 20] | > 7.4% | very good solubility
5 | CCOCCOC(=O)C(c1ccc(OS(=O)(=O)c2cccc3c2C=CC(=[N+]=[N-])C3=O)cc1)c1ccc(OS(=O)(=O)c2cccc3c2C=CC(=[N+]=[N-])C3=O)cc1 (centres unmarked) [Compound 22] | 6.0% | very good solubility
6 | CCOC(=O)CCC(C)(c1ccc(OS(=O)(=O)c2cccc3c2C=CC(=[N+]=[N-])C3=O)cc1)c1ccc(OS(=O)(=O)c2cccc3c2C=CC(=[N+]=[N-])C3=O)cc1 (centres unmarked) [Compound 3] | 0.86% | –
7 | COC(C)CCOC(=O)CCC(C)(c1ccc(OS(=O)(=O)c2cccc3c2C=CC(=[N+]=[N-])C3=O)cc1)c1ccc(OS(=O)(=O)c2cccc3c2C=CC(=[N+]=[N-])C3=O)cc1 (centres unmarked) [Compound 9] | 1.54% | very good solubility
8 | CCCOC(=O)C(c1ccc(OS(=O)(=O)c2cccc3c2C=CC(=[N+]=[N-])C3=O)cc1)c1ccc(OS(=O)(=O)c2cccc3c2C=CC(=[N+]=[N-])C3=O)cc1 (centres unmarked) [Compound 19] | 0.95% | –
9 | COCCOC(=O)CCC(C)(c1ccc(OS(=O)(=O)c2cccc3c2C=CC(=[N+]=[N-])C3=O)cc1)c1ccc(OS(=O)(=O)c2cccc3c2C=CC(=[N+]=[N-])C3=O)cc1 (centres unmarked) [Compound 7] | 0.91% | –

Source: patent US4266001A, “Light-sensitive mixture” (Hoechst Aktiengesellschaft, priority 1978, dated 1981)
